Patent publication US20050143927A1, “Method for estimating or predicting the anti-tumor activity of a compound and for estimating or predicting the tumor growth in mammals” (Pharmacia Italia S.p.A., priority 2002, published 2005)

Tested on: GTL16 (human stomach carcinoma)
Assay: Tumor growth model for treated subjects, GTL16 inoculated subcutaneously in athymic nude mice (Experiment-A)
Format: in vivo
Excerpt: The cell line GTL16 (human stomach carcinoma) was inoculated subcutaneously on the back of 44 athymic nude male mice, initially weighing 17.9-28.1 g.
The dimensions of the tumor can be taken applying different types of measurements broadly classifiable as measurements of linear dimensions, of volume (or mass) and cell number. For tumors that maintain more or less a spherical morphology, as in the case of solid tumors, the measurement of the three principal diameters results the most adequate, as well as the most practiced solution. Nevertheless, in the case of subcutaneous tumors, the tumor can be considered of spherical shape only during the initial phase of growth; in the following phases, the dimension perpendicular to the skin is generally much smaller than the percutaneous dimensions, conferring to the mass a plaque-like shape or an hemi-ellipsoidal shape. In the experiments taken into consideration, only the dimensions of the two percutaneous diameters were directly measured with vernier calipers. The third dimension was not directly measured, because of the limited accessibility (which would have required a greater invasiveness), in the assumption that two measures were anyhow sufficient to guarantee a good approximation of the tumor mass (K. Rygaard and M. Spang-Thomsen, “Quantitation and Gompertzian analysis of tumor growth”. Breast Cancer Research and Treatment, 46: 303-312,1997).
The volume of a tumor can be indirectly calculated by applying the following empirical formula: [formula] where DMIN and DMAX denote, respectively, the smallest and the largest percutaneous diameter. Such empirical formula hypothesizes that the neoplasia has an ellipsoidal shape (D. A. Cameron, W. M. Gregory, A. Bowman, E. D. C. Anderson, P. Levack, P. Forouhi and R. F. C. Leonard, “Identification of long-term survivors in primary breast cancer by dynamic modeling of tumour response”. British Journal of Cancer, 83(1): 98-103, 2000, Hammond, L. A.; Hilsenbeck, S. G.; Eckhardt, S. G.; Marty, J; Mangold, G.; MacDonald, G. R.; Rowinsky, E. K.; Von Hoff, D. D; Weitman S. Enhanced antitumour activity of 6-hydroxymethylacylfulvene in combination with topotecan or paclitaxel in the MV522 lung carcinoma xenograft model. European Journal of Cancer 2000, 36, 2430-2436) obtained by the rotation of a hemi-ellipsoid (with DMIN and DMAX as axes of the percutaneous plane) around its largest axe. Assuming δ as a constant density equal to δ=10^−3g/mm^3, the empirical expression for the mass of the neoplasia results to be: [formula] The Measurement Error Model
As it regards the model of tumor growth, the error model above introduced is instead known. For the observed measurements of a generic quantity y (for instance the weight of the tumor), the constant coefficient of variation error model (3.5 and 3.6) asserts that the standard deviation of the error varies linearly with the dimension the measured quantity. With an error model of this kind, the technique of the weighed least squares (Weighed Least Squares, WLS), described in M. E. Dagna, “Identificazione di modelli farmacocinetici di popolazione”; Università degli Studi di Pavia 1999, herein incorporated as far as the WLS technique is concerned, is more adequate.

[1] = mean of the twelve treated mice (20, 30, 40 mg/kg q4dx3)
[2] = mouse 0, 20 mg/kg iv-bolus q4dx3
[3] = mouse 26, 40 mg/kg iv-bolus q4dx3
[4] = mouse 28, 30 mg/kg iv-bolus q4dx3
[5] = mouse 31, 20 mg/kg iv-bolus q4dx3
[6] = mouse 55, 20 mg/kg iv-bolus q4dx3
[7] = mouse 59, 30 mg/kg iv-bolus q4dx3
[8] = mouse 64, 30 mg/kg iv-bolus q4dx3
[9] = mouse 69, 20 mg/kg iv-bolus q4dx3
[10] = mouse 78, 40 mg/kg iv-bolus q4dx3
[11] = mouse 80, 40 mg/kg iv-bolus q4dx3
[12] = mouse 81, 40 mg/kg iv-bolus q4dx3
[13] = mouse 88, 30 mg/kg iv-bolus q4dx3
[14] = treated mouse 0, 20 mg/kg iv-bolus q4dx3
[15] = treated mouse 26, 40 mg/kg iv-bolus q4dx3
[16] = treated mouse 28, 30 mg/kg iv-bolus q4dx3
[17] = treated mouse 31, 20 mg/kg iv-bolus q4dx3
[18] = treated mouse 55, 20 mg/kg iv-bolus q4dx3
[19] = treated mouse 59, 30 mg/kg iv-bolus q4dx3
[20] = treated mouse 64, 30 mg/kg iv-bolus q4dx3
[21] = treated mouse 69, 20 mg/kg iv-bolus q4dx3
[22] = treated mouse 78, 40 mg/kg iv-bolus q4dx3
[23] = treated mouse 80, 40 mg/kg iv-bolus q4dx3
[24] = treated mouse 81, 40 mg/kg iv-bolus q4dx3
[25] = treated mouse 88, 30 mg/kg iv-bolus q4dx3

Q: Which “K1, mean” value [1] does the source give for `CC(=O)O[C@H]1C(=O)[C@@]2(C)[C@H]([C@H](OC(=O)c3ccccc3)[C@]3(O)C[C@H](OC(=O)[C@H](O)[C@@H](NC(=O)c4ccccc4)c4ccccc4)C(C)=C1C3(C)C)[C@]1(OC(C)=O)CO[C@@H]1C[C@@H]2O` [Drug-A, paclitaxel] here?
A: 0.1879 day⁻¹

Q: And the “K2, mean” value [1]?
A: 0.002921 mL/g/day

Q: And the “λ0, mean” value [1]?
A: 0.2467

Q: And the “λ1, mean” value [1]?
A: 0.1274

Q: What about the “K1 (index of the tumor cells death rate)” value [2] of the same compound?
A: 0.2057 day⁻¹

Q: And the “K2 (index of the potency of the compound)” value [2]?
A: 0.01878 mL/g/day

Q: And the “K1 (index of the tumor cells death rate)” value [3]?
A: 0.1658 day⁻¹

Q: And the “K2 (index of the potency of the compound)” value [3]?
A: 0.00315 mL/g/day

Q: What about the “K1 (index of the tumor cells death rate)” value [4] of the same compound?
A: 0.1406 day⁻¹

Q: What about the “K2 (index of the potency of the compound)” value [4] of the same compound?
A: 0.000759 mL/g/day

Q: And the “K1 (index of the tumor cells death rate)” value [5]?
A: 0.2683 day⁻¹

Q: What about the “K2 (index of the potency of the compound)” value [5] of the same compound?
A: 0.003356 mL/g/day

Q: What about the “K1 (index of the tumor cells death rate)” value [6] of the same compound?
A: 0.2424 day⁻¹

Q: What about the “K2 (index of the potency of the compound)” value [6] of the same compound?
A: 0.002721 mL/g/day

Q: And the “K1 (index of the tumor cells death rate)” value [7]?
A: 0.192 day⁻¹

Q: What about the “K2 (index of the potency of the compound)” value [7] of the same compound?
A: 0.000563 mL/g/day

Q: What about the “K1 (index of the tumor cells death rate)” value [8] of the same compound?
A: 0.1646 day⁻¹

Q: And the “K2 (index of the potency of the compound)” value [8]?
A: 0.001085 mL/g/day

Q: And the “K1 (index of the tumor cells death rate)” value [9]?
A: 0.1515 day⁻¹

Q: And the “K2 (index of the potency of the compound)” value [9]?
A: 0.001361 mL/g/day

Q: And the “K1 (index of the tumor cells death rate)” value [10]?
A: 0.2056 day⁻¹

Q: What about the “K2 (index of the potency of the compound)” value [10] of the same compound?
A: 0.001507 mL/g/day

Q: What about the “K1 (index of the tumor cells death rate)” value [11] of the same compound?
A: 0.209 day⁻¹

Q: And the “K2 (index of the potency of the compound)” value [11]?
A: 0.000178 mL/g/day

Q: And the “K1 (index of the tumor cells death rate)” value [12]?
A: 0.2206 day⁻¹

Q: And the “K2 (index of the potency of the compound)” value [12]?
A: 0.000314 mL/g/day

Q: What about the “K1 (index of the tumor cells death rate)” value [13] of the same compound?
A: 0.08819 day⁻¹

Q: What about the “K2 (index of the potency of the compound)” value [13] of the same compound?
A: 0.001276 mL/g/day

Q: What about the “LAMBDA0 (production rate of tumor cells, exponential phase)” value (“LAMBDA0” for short) [14] of the same compound?
A: 0.2601

Q: And the “LAMBDA1 (tumor cells mass produced in the time unit, linear phase)” value (“LAMBDA1” for short) [14]?
A: 0.1563

Q: And the “LAMBDA0” value [15]?
A: 0.2087

Q: What about the “LAMBDA1” value [15] of the same compound?
A: 0.1678

Q: What about the “LAMBDA0” value [16] of the same compound?
A: 0.2396

Q: What about the “LAMBDA1” value [16] of the same compound?
A: 0.16

Q: What about the “LAMBDA0” value [17] of the same compound?
A: 0.2726

Q: And the “LAMBDA1” value [17]?
A: 0.08095

Q: What about the “LAMBDA0” value [18] of the same compound?
A: 0.2377

Q: And the “LAMBDA1” value [18]?
A: 0.07223

Q: And the “LAMBDA0” value [19]?
A: 0.2458

Q: And the “LAMBDA1” value [19]?
A: 0.07275

Q: What about the “λ0 (production rate of tumor cells, exponential phase)” value [20] of the same compound?
A: 0.2565

Q: And the “λ1 (tumor cells mass produced in the time unit, linear phase)” value [20]?
A: 0.18

Q: And the “λ0 (production rate of tumor cells, exponential phase)” value [21]?
A: 0.2464

Q: And the “λ1 (tumor cells mass produced in the time unit, linear phase)” value [21]?
A: 0.1782

Q: And the “λ0 (production rate of tumor cells, exponential phase)” value [22]?
A: 0.2438

Q: What about the “λ1 (tumor cells mass produced in the time unit, linear phase)” value [22] of the same compound?
A: 0.1276

Q: What about the “λ0 (production rate of tumor cells, exponential phase)” value [23] of the same compound?
A: 0.234

Q: What about the “λ1 (tumor cells mass produced in the time unit, linear phase)” value [23] of the same compound?
A: 0.05985

Q: What about the “λ0 (production rate of tumor cells, exponential phase)” value [24] of the same compound?
A: 0.2723

Q: What about the “λ1 (tumor cells mass produced in the time unit, linear phase)” value [24] of the same compound?
A: 0.0685

Q: What about the “λ0 (production rate of tumor cells, exponential phase)” value [25] of the same compound?
A: 0.2431

Q: What about the “λ1 (tumor cells mass produced in the time unit, linear phase)” value [25] of the same compound?
A: 0.2049
